Laboratory results reported in patent US12171229B2, “Heteroaryl-triazole and heteroaryl-tetrazole compounds as pesticides” (BAYER AKTIENGESELLSCHAFT, priority 2018, dated 2024).

Assays:
Type in all cases: in vivo
Ctenocephalides felis [1] = assay: Ctenocephalides felis in-vitro contact test, adult cat flea; details: 5 μg/cm^2 (=500 g/ha), after 48 hours, adult cat fleas, read-out: efficacy (fleas dead or moribund)
Procedure: Ctenocephalides Felis—In-Vitro Contact Tests Adult Cat Flea 9 mg compound is solved in 1 ml acetone and diluted with acetone to the desired concentration. 250 μl of the test solution is filled in 25 ml glass test tubes and homogeneously distributed on the inner walls by rotation and tilting on a shaking device (2 h at 30 rpm). With a compound concentration of 900 ppm, an inner surface of 44.7 cm^2 and a homogeneous distribution, a dose of 5 μg/cm^2 is achieved. After the solvent has evaporated, each test tube is filled with 5-10 adult cat fleas (Ctenocephalides felis), closed with a perforated lid and incubated in a lying position at room temperature and relative humidity. After 48 hours efficacy is determined. The fleas are patted on the ground of the tubes and are incubated on a heating plate at 45-50° C. for at most 5 minutes. Immotile or uncoordinated moving fleas, which are not able to escape the heat by climbing upwards, are marked as dead or moribund. […] An efficacy of 100% means all fleas are dead or moribund; 0% means no fleas are dead or moribund.

Myzus persicae [2] = assay: Myzus persicae oral test; details: 120 h, 4 ppm, after 5 days
Procedure: Solvent: 100 parts by weight acetone
To produce a suitable preparation of active compound, 1 part by weight of active compound is mixed with the stated amount of solvent, and the concentrate is diluted with water to the desired concentration.
50 μl compound solution is filled in microtiter plates and 150 μl IPL41 insect medium (33%+15% sugar) is added to obtain a total volume of 200 μl per well. Afterwards the plates are sealed with parafilm through which a mixed population of the green peach aphid (Myzus persicae) can suck on the compound preparation.
(§1) After 5 days mortality in % is determined. 100% means all aphids have been killed and 0% means none of the aphids have been killed.

Ctenocephalides felis [3] = assay: Ctenocephalides felis oral test; details: 48 h, 100 ppm in cattle blood, after 2 days, adult unfed cat fleas
Summary of the method: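 Compound dissolved in DMSO and diluted in cattle blood to test concentration, offered to ~20 unfed adult fleas via a parafilm-sealed blood chamber held at 37° C (fleas at room temperature). Kill recorded at 2 days as % mortality.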

Diabrotica balteata = Diabrotica balteata spray test; details: Diabrotica balteata, in Triticum aestivum, 168 h, after 7 days, larvae on wheat seeds, read-out: efficacy (seedlings grown up); for pest or weed control at 80 µg/disc, 250 g/ha: 80 μg/well (=250 g/ha); for pest or weed control at 160 µg/disc, 500 g/ha: 160 μg/well (=500 g/ha)
Summary of the method: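 Scoring at 7 days compares seedling growth with untreated, uninfested controls (100% = equal growth, 0% = none grown). Wheat seedlings germinated 1 day on agar, 5 per well, received a spray of test solution made in 1000 ppm emulsifier water. Each unit then received 10–20 beetle larvae.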

Spodoptera frugiperda = Spodoptera frugiperda spray test; details: 168 h, after 7 days, larvae on maize leaf sections
Summary of the method: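 Read-out: % larval mortality at day 7, where 100% means all killed and 0% none killed. Compound diluted in water with 1000 ppm emulsifier, sprayed onto Zea mays leaf sections; dried sections then infested with S. frugiperda larvae.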

Boophilus microplus = Boophilus microplus injection test; details: Rhipicephalus microplus, 168 h; 20 μg/animal injected into the abdomen; adult engorged female ticks; egg deposition after 7 days; read-out: efficacy (infertile eggs)
Summary of the method: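 Efficacy, from 0% (all eggs fertile) to 100% (all infertile), was scored on eggs laid by five engorged adult females. Each female was injected intra-abdominally with 1 μl of compound solution in DMSO. Fertile egg laying was checked at 7 days, with uncertain eggs kept until hatching at about 42 days.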

Nezara viridula = Nezara viridula spray test; details: 96 h, after 4 days, larvae on barley plants
Summary of the method: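 Mortality (%) was assessed at day 4, from 0% (no bugs dead) to 100% (all dead). The spray solution was compound diluted to test concentration in water with 1000 ppm emulsifier and applied to barley carrying southern green stink bug larvae.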

Myzus persicae [4] = assay: Myzus persicae spray test; details: foliar, 120 h, after 5 days, Chinese cabbage leaf disks
Procedure: Myzus persicae—Spray Test
To produce a suitable preparation of active compound, 1 part by weight of active compound is mixed with the stated amount of solvents and is diluted with water, containing an emulsifier concentration of 1000 ppm, to the desired concentration. Further test concentrations are prepared by dilution with emulsifier containing water.
Chinese cabbage (Brassica pekinensis) leaf disks infected with all instars of the green peach aphid (Myzus persicae), are sprayed with a preparation of the active ingredient of the desired concentration.
as §1

SMILES	pest or weed control at 5 µg/cm2 (Ctenocephalides felis [1]) [%]	mortality at 4 ppm (Myzus persicae [2]) [%]	mortality at 100 ppm (Ctenocephalides felis [3]) [%]	pest or weed control at 80 µg/disc, 250 g/ha (Diabrotica balteata) [%]	pest or weed control at 160 µg/disc, 500 g/ha (Diabrotica balteata) [%]	mortality at 100 g/ha (Spodoptera frugiperda) [%]	mortality at 500 g/ha (Spodoptera frugiperda) [%]	pest or weed control at 0.02 mg (Boophilus microplus) [%]	mortality at 500 g/ha (Nezara viridula) [%]	mortality at 100 g/ha (Nezara viridula) [%]	mortality at 500 g/ha (Myzus persicae [4]) [%]	mortality at 100 g/ha (Myzus persicae [4]; 100 g/ha) [%]
C[C@H](NC(=O)c1cc(Cl)cc(C(F)(F)F)c1)c1ncnn1-c1ccc(C(=O)NC2CC2)cn1 [Example I-061]	100	100	100	100	100	100	100	100	100			
COc1cc(Cl)cc(C(=O)N[C@@H](C)c2ncnn2-c2ccc(C#N)cn2)c1 [Example I-079]	90		100	100			100		90	90		
C[C@H](NC(=O)c1cc(Br)cc(C(F)(F)F)c1)c1ncnn1-c1ccc(C#N)cn1 [Example I-081]	90	100		100	100	100	100		100	90		
C[C@H](NC(=O)c1cc(Cl)cc(C(F)(F)F)c1)c1ncnn1-c1ncc(C(F)(F)F)s1 [Example I-085]	100		100	100	100	100	100		100			
C[C@H](NC(=O)c1cc(C(F)(F)F)cc(C(F)(F)F)c1)c1ncnn1-c1ncc(Cl)cc1F [Example I-088]	100		100	100	100	100	100		100	90	90	
C[C@H](NC(=O)c1cc(Cl)cc(OC(F)(F)F)c1)c1ncnn1-c1ccc([N+](=O)[O-])cn1 [Example I-089]	100	90	100	100	100	100	100		100	90	90	90
